This is an account of results in patent US20240317722A1, “HETEROARYL-3-PIPERIDINEDIONE COMPOUND AND USE THEREOF” (Medshine Discovery Inc., priority 2021, published 2024).

Like-named read-outs stand apart in the source and are kept apart here.

The test system of one series is MDA-MB-231. The series can be described thus: Anti-proliferative effect in MDA-MB-231 (CellTiter-Glo). As to conditions: MDA-MB-231, 3 days; for IC50: Homo sapiens, 72 h. The class given is cell-based, human. As to the method: (§1) This assay studied the inhibitory effect of the compounds on cell proliferation by detecting the effect of the test compounds on the in vitro activity of tumor cells MV4-11 and MDA-MB-231.
(§2) The tumor cell lines were cultured in an incubator at 37° C., 5% CO2 or 0% CO2according to the above culture conditions. The cells were periodically passaged, and cells in logarithmic growth phase were taken for plating. • 2. Cell plating • (1). Cells were stained with trypan blue and viable cells were counted. • (2).
(§3) • (3). 90 μL of cell suspension was added to each well of the culture plate, and culture medium without cells was added to the blank control well. • (4). The plate was incubated overnight in an incubator at 37° C., 5% CO2 or 0% CO2, and 100% relative humidity. • 3. Preparation of a compound storage plate
(§4) Preparation of a 400× compound storage plate: The compounds were diluted with DMSO in a gradient from the highest concentration to the lowest concentration. The plates were prepared freshly at each time for use. • 4. Preparation of 10× compound working solution and treatment of cells with compounds • (1). Preparation of 10× compound working solution: compound or DMSO was added, and the well content was mixed to uniform by aspiration and expelling with pipette. 78 μL of cell culture medium was added to a 96-well plate with a V-shaped bottom. 2 μL of the compound from the 400× compound storage plate was added to the cell culture medium in the 96-well plate. 2 μL of DMSO was added to the vehicle control and the blank control. After adding compound or DMSO, the well content was mixed to uniform by aspiration and expelling with pipette. • (2). Dosing: 10 μL of 10× compound working solution was added to the cell culture plate. 10 μL of DMSO-cell culture mix solution was added to the vehicle control and blank control. • (3). The 96-well cell plate was placed back into the incubator and cultured for 3 days. • 5. CellTiter-Glo luminescence cell viability detection
The following steps were performed according to the instruction of Promega CellTiter-Glo luminescence cell viability detection kit (Promega-G7573). • (1). The CellTiter-Glo buffer was thawed and allowed to stand to reach room temperature; • (2). CellTiter-Glo substrate was allowed to stand to reach room temperature; • (3). 10 mL of CellTiter-Glo buffer was added to CellTiter-Glo substrate in a bottle to dissolve the substrate to formulate CellTiter-Glo working solution; • (4). The working solution was vortexed slowly for fully dissolution; • (5). The cell culture plates were taken out and allowed to stand for 30 minutes to equilibrate to room temperature; • (6). 50 μL (equal to half the volume of cell culture solution in each well) of Cell Titer-Glo working solution was added into each well. The cell plate was wrapped with aluminum foil to protect the cell plate from light; • (7). The culture plates were shaken on an orbital shaker for 2 minutes to induce cell lysis; • (8). The culture plates were left at room temperature for 10 minutes to stabilize the luminescence signal; • (9). The luminous signal was detected on the 2104 En Vision plate reader. • 6. Data analysis
The following formula was used to calculate the inhibition rate (IR) of the test compounds: IR (%)=(RLU of the vehicle control−RLU of the compound)/(RLU of the vehicle control−RLU of the blank control)*100%. The inhibition rates of the compounds at different concentrations were calculated in Excel, and then GraphPad Prism software was used to graph the inhibition curves and calculate the relevant parameters, including the minimum inhibition rate, maximum inhibition rate and IC50.

Another series deals with MV4-11. Put plainly: Anti-proliferative effect in MV4-11 (CellTiter-Glo). The class given is cell-based. As to conditions: MV4-11, 3 days; for IC50: Homo sapiens, 72 h. As to the method: as §1, §2, §3, §4
The following steps were performed according to the instruction of Promega CellTiter-Glo luminescence cell viability detection kit (Promega-G7573). • (1). The CellTiter-Glo buffer was thawed and allowed to stand to reach room temperature; • (2). CellTiter-Glo substrate was allowed to stand to reach room temperature; • (3). 10 mL of CellTiter-Glo buffer was added to CellTiter-Glo substrate in a bottle to dissolve the substrate to formulate CellTiter-Glo working solution; • (4). The working solution was vortexed slowly for fully dissolution; • (5). […] The culture plates were left at room temperature for 10 minutes to stabilize the luminescence signal; • (9). The luminous signal was detected on the 2104 En Vision plate reader. • 6. […]

The target of series [1] is T1, GSPT1 (Homo sapiens, UniProt P15170+Q96SW2). Put plainly: Target protein degradation in HEK293T-LgBiT_GSPT1-nHiBiT cells (HiBiT luminescence). Set-up: expressed in transfected cells. The class given is cell-based. As to conditions: 16 to 18 hours; for Dmax: read-out: Max. DR (maximum degradation rate). As to the method: This assay was performed to detect the degradation effect of the test compound on the target protein GSPT1 in HEK293T-LgBiT cells.
T1 sequence (P15170 whole entry): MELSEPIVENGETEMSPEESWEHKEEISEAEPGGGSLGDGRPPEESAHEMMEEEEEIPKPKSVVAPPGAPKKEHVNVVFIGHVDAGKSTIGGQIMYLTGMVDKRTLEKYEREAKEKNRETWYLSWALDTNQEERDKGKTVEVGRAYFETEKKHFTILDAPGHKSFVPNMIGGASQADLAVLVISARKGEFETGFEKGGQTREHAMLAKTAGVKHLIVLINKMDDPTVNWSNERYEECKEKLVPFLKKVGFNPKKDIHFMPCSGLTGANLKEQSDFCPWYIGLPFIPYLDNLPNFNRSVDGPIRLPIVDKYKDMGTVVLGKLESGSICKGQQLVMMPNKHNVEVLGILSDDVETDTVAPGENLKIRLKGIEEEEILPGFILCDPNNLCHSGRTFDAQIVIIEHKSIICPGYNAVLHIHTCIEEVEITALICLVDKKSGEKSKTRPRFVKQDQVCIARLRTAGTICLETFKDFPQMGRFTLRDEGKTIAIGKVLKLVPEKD
T1 sequence (Q96SW2 whole entry): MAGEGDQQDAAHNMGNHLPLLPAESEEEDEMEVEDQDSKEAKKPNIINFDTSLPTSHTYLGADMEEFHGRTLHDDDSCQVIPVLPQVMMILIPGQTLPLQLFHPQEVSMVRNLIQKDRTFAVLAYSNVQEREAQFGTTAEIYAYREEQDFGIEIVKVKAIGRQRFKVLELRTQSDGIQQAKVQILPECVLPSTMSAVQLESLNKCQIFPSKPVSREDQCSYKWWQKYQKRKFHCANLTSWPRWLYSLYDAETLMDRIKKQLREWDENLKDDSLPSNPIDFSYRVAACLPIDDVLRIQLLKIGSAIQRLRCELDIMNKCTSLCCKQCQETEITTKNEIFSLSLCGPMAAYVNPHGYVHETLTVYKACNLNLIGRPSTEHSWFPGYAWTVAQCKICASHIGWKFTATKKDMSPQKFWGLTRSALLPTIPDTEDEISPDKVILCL
T1 sequence (Q16531 whole entry partner): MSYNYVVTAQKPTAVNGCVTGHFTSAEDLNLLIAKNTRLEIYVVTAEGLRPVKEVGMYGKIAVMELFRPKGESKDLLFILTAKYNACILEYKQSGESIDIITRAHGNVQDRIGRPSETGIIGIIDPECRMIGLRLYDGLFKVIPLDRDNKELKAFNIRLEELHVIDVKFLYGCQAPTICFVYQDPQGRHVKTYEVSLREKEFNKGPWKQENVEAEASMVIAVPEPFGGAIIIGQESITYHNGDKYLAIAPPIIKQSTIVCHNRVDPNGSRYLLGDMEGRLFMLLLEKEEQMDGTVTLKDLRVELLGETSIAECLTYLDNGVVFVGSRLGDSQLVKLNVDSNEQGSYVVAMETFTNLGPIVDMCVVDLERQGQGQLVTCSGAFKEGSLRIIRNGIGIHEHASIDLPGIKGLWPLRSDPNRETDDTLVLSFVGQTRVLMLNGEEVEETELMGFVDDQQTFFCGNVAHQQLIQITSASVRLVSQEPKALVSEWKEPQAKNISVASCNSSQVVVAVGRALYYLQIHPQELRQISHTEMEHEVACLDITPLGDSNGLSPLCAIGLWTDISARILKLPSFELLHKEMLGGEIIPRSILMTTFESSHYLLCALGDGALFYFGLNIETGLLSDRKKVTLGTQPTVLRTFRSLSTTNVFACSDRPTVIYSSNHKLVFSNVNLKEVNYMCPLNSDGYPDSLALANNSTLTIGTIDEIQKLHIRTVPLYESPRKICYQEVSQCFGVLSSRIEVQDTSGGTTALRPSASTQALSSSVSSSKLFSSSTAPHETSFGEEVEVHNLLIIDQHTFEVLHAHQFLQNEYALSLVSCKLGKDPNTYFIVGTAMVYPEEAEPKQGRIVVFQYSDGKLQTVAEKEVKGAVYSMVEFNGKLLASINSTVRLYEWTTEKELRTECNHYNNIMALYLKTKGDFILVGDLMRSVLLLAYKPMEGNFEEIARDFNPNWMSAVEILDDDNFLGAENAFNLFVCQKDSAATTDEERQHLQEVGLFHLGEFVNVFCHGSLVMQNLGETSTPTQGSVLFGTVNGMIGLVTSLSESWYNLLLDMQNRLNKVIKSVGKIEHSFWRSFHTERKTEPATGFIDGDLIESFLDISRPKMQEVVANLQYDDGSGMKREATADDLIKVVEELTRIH
• 1. Preparation of compounds • (1). Dissolving the powder of the test compound with DMSO to 10 mM as the storage concentration, and using a pipette to manually draw 9 μL of 10 mM or 3 mM test compound to columns 1 and 13 of a LDV plate; • (2). Using multidrop Combi to add 6 μL of DMSO to columns 2-12 and 14-24; • (3). Using Bravo to dilute the test compound 3 times (3 μL+6 μL) from columns 1 to 11 and 13 to 23; • (4). According to the layout of the plate, using Echo to transfer 25 nL of compound solution (columns 1-24 of the LDV plate) to the assay plate; • (5). Using Echo to transfer 25 nL of 1 mM positive control solution to the assay plate as a 100% degradation control (i.e. LC, HPE), and to transfer 25 nL of DMSO to the assay plate as a 0% control (i.e. HC, ZPE). • 2. Cell plating • (1). Discarding the cell culture medium, and washing the cells once with DPBS; then the cells were trypsinized, counted, and used to prepare a cell suspension of 4×10^5 cells/mL; • (2). Using MultiDrop Combi to add 25 μL/well of cell suspension at medium speed to the assay plate containing the test compound; • (3). Putting the assay plate containing cells back into the incubator and culturing it at 37° C. and 5% CO2 for 16 to 18 hours.
• (1). Using MultiDrop Combi to add 25 μL/well of detection reagent (NanoGlo lysis solution+substrate+LgBit protein) to the assay plate at high speed, and shaking for 10 minutes; • (2). Centrifuging at 2000 rpm×1 min to remove bubbles; • (3). Reading the plate using Envision, US Luminescence detection method.
The following formula was used to calculate the degradation rate (DR) of the test compound: DR (%)=(RLU of vehicle control−RLU of compound)/(RLU of vehicle control−RLU of positive control)*100%, wherein the vehicle control was a blank control. The degradation rates of compounds at different concentrations were calculated in Excel, and then XLFit software was used to obtain inhibition curves and to calculate relevant parameters, including the minimum degradation rate, maximum degradation rate and DC50.

The nature of series [2]: Pharmacokinetics of compounds in mice. Type of series: in vivo, C57BL/6N mice. Particulars: for bioavailability / clearance / Vd / half-life: male, C57BL/6N, mouse, plasma; for bioavailability: read-out: Bioavailability F; for Vd: read-out: Apparent volume of distribution; for half-life: read-out: Elimination half-life (converted). The source says: In this study, C57BL/6N male mice were selected as the test animals, and the LC/MS/MS method was used to quantitatively determine the drug concentration in the plasma of mice intravenously or orally administered the test compounds, so as to evaluate the pharmacokinetic profile of the test compounds in mice.
C57BL/6N mice (male, 20-30 g, 7-10 weeks old, Beijing Vital River).
A clear solution or suspension of the test compound was intravenously injected into C57BL/6N mice (fasted overnight) via tail or given to C57BL/6N mice (fasted overnight) by gavage. For intravenous injection administration, blood was collected from the cheek at 0 h (before administration) and 0.083, 0.25, 0.5, 1, 2, 4, 6, 8, and 24 h after administration. Each sample was collected about 0.05 mL. Heparin sodium was added to anti-coagulate. Plasma samples were collected and placed on wet ice, and centrifuged within 1 hour to separate the plasma (centrifugation conditions: 6000 g, 3 minutes, 2-8° C.). Blood samples were stored in a −80° C. refrigerator before analysis; For oral gavage administration, blood was collected from the cheek at 0 h (before administration) and 0.083, 0.25, 0.5, 1, 2, 4, 6, 8, 24 h after administration. Each sample was collected about 0.05 mL. Heparin sodium was added to anti-coagulate. Plasma samples were collected and placed on wet ice, and centrifuged within 1 hour to separate the plasma (centrifugation conditions: 6000 g, 3 minutes, 2-8° C.). Blood samples were stored in a −80° C. refrigerator before analysis. Through blood drug concentration data at different time points, Phoenix WinNonlin8.2.0 was used to calculate pharmacokinetic parameters, providing parameters such as AUC0-t, AUC0-∞, MRT0-∞, Cmax, Tmax, and T1/2, etc. and their mean and standard deviation.

Series [3] deals with T1, GSPT1. Put plainly: Effect of degrading GSPT1 protein (Western blot) in BxPC-3 cells. Type of series: cell-based. Details: endogenous in cells; host or cells: BxPC-3. Particulars: 10 μM, 1 μM and 0.1 μM, 24 hours, Western blot (FIG. 1). As to the method:
BxPC-3 cells were treated with 10 μM, 1 μM and 0.1 μM of the test compound respectively for 24 hours. The cells were collected and lysed, denatured at 100° C. for 20 minutes, and then subjected to Western blot analysis. β-actin was used as the internal reference protein to detect the protein level of GSPT1. The main steps included: 1) Electrophoresis: Biorad precast gel was used to separate proteins using SDS-PAGE electrophoresis; 2) Transfer to membrane: Biorad rapid transfer to membrane system was used to transfer the proteins on the gel to PVDF membrane; 3) Blocking: the PVDF membrane with Western blotting was placed into an antibody incubation box, and blocking solution was added to completely cover the PVDF membrane for incubation at room temperature for 1 hour; 4) Incubation of the primary antibody: the above PVDF membrane was covered with GSPT1 antibody diluent, and incubated on a shaker at 4° C. overnight, 5) Incubation of the secondary antibody: the membrane was washed three times with Wash buffer, and secondary antibody diluent (Anti-rabbit IgG, HRP-linked) was added for incubation on a shaker at room temperature for 1 hour; 5) Exposure: the membrane was washed three times with Wash buffer, and the band on the membrane was detected using chemiluminescence method (Clarity Western ECL Substrate).

Setting [4] is: administration by gavage, 10 mg/kg.

As to `O=C(COc1cccc(-c2csc(N3CCOCC3)n2)c1)NCCCCCCC(=O)Nc1ccc2c(C3CCC(=O)NC3=O)coc2c1` (stereo not shown) [WX003], in the series on MDA-MB-231, the IC50 worked out at 52.4 nM and the “Max. IR (maximum inhibition rate)” value was 65.29%. Moreover, in the series with MV4-11, the IC50 came out at 6 nM and the “Max. IR (maximum inhibition rate)” value stood at 100.15%.

In the case of `Cc1c(Cl)cc(NC(=O)NCc2ccc3c(C4CCC(=O)NC4=O)noc3c2)cc1OCCN1CCOCC1` (stereo not shown) [WX012], on GSPT1 [1], the DC50 was 1.18 nM and the Dmax was 99.8%. Further, in series [2] (setting [4]), the “Area under the plasma concentration-time curve (0-inf)” value (“Area” below) is 1.99 µM·h, the Peak concentration is 0.69 µM and the Time to peak is reported as 1.08 h. Besides, in series [2] (intravenous injection, 2 mg/kg), the “Area” value was 6.45 µM·h, the clearance came out at 9.5 mL/min/kg, the Vd is 0.41 L/kg and the half-life is 1.85 h. The bioavailability in series [2] (PO 10 mg/kg vs IV 2 mg/kg) is 6.18%.

As to `Cc1ccc(NC(=O)NCc2ccc3occ(C4CCC(=O)NC4=O)c3c2)cc1Cl` (stereo not shown) [WX001], in the series on MDA-MB-231, the IC50 turned out to be 57.2 nM and the “Max. IR (maximum inhibition rate)” value is reported as 69.41%. Also, the “effect of promoting the degradation of GSPT1 protein” value at GSPT1 [3] is reported as “significant effect of promoting the degradation of GSPT1 protein”. Moreover, in the series with MV4-11, 30.5 nM corresponded to half-maximal inhibition (IC50) and the “Max. IR (maximum inhibition rate)” value is 99.95%.

As for `Cc1c(Cl)cc(NC(=O)NCc2ccc3c(C4CCC(=O)NC4=O)coc3c2)cc1OCCN1CCOCC1` (stereo not shown) [WX006], at GSPT1 [1], half-maximal degradation (DC50) was put at 1.94 nM and the Dmax is 99.9%. For the same compound, in the series with MDA-MB-231, the IC50 was 4.7 nM and the “Max. IR (maximum inhibition rate)” value is 80.3%. In series [2] (setting [4]), the “Area” value stood at 2.71 µM·h, the Peak concentration turned out to be 1.76 µM and the Time to peak was 0.50 h. Moreover, in series [2] (intravenous injection, 1 mg/kg), the “Area” value was found to be 1.90 µM·h, the clearance came out at 15.8 mL/min/kg, the Vd came out at 2.3 L/kg and the half-life was 3.62 h. Also, the bioavailability in series [2] (PO 10 mg/kg vs IV 1 mg/kg) came out at 14.2%.
